Test results reported in PMC7934871 (JCI Insight, 2021).
Non-standard residues stand in square brackets, D forms with d. No end group written: not given here. pY = N[C@@H](Cc1ccc(OP(=O)(O)O)cc1)C(=O)O

Key:
pY705-STAT3 = assay: IL-6–induced pY705-STAT3 in splenic CD8+ T cells, Western blotting; format: cell-based; conditions: mouse splenic CD8+ T cells
[1] = system: EGF-mediated ERK phosphorylation; assay: EGF-mediated ERK phosphorylation, Western blotting; format: cell-based; conditions: preincubated 2 hours, 30 ng/mL EGF for 30 minutes
Protocol: (§1) Figure 8 PS-Gp130 and PS-MYC blocking peptides efficiently internalize into tumor cells to exert their functions. (A) For 1 hour 1 μM of PS-conjugated MYC (PS-MYC) and Gp130 (PS-Gp130) were incubated with cancer cells. PS-scramble MYC (PS-SC-MYC) was used as a control for PS-MYC. The peptide uptake was visualized by confocal microscopy and quantified by flow cytometry. Data are representative of 3 independent experiments (n = 3). (B) Upper panel: The binding of PS-Gp130 and STAT3 was examined by immunoprecipitation and Western blotting. PO-Gp130 was used as a control. For 4 hours prior to harvest, 1 μM of peptide was incubated with cells. Lower panel: PS-Gp130 inhibits IL-6–induced phosphorylation of STAT3 and p44/42 but not EGF-mediated signaling. The cells were preincubated with PS-Gp130 for 2 hours and then stimulated with 20 ng/mL of IL-6 or 30 ng/mL of EGF for 30 minutes before harvest and Western blotting. (C) Gene expression of STAT3 targets was examined by quantitative PCR after the treatment with 1 μM of PS-Gp130 with or without IL-6 stimulation as described above. Data shown are 3 independent experiments (n = 3); SD is shown. Unpaired Student’s t test; ***P < 0.005; **P < 0.01; *P < 0.05. (D) A total of 1 μM of PS-SC-MYC or PS-MYC was incubated with cells for 48 hours before the gene expression of MYC targets was examined by quantitative PCR. […]

STAT3 = STAT3 (Homo sapiens, UniProt P40763); assay: Binding of PS-Gp130 and STAT3, immunoprecipitation and Western blotting; set-up: endogenous in cells; conditions: 1 μM, 4 hours prior to harvest
Protocol: as §1, with “The cells were preincubated with PS-Gp130 for 2 hours and then stimulated with 20 ng/mL of IL-6 or 30 ng/mL of EGF for 30 minutes before harvest and Western blotting.” left out, “Data shown are 3 independent experiments (n = 3); SD is shown. Unpaired Student’s t test; ***P < 0.005; **P < 0.01; *P < 0.05.” left out
Whole cell lysates or tissue homogenates were prepared by using RIPA lysis buffer (50 mM Tris at pH 7.4, 150 mM NaCl, 1 mM EDTA, 0.5% NP-40, 1 mM NaF, 15% glycerol, and 20 mM β-glycerophosphate). […] Protein amounts were determined by BCA using a Thermo Fisher Scientific kit. […]

[2] = system: IL-6–induced STAT3 phosphorylation; assay: IL-6–induced STAT3 phosphorylation, Western blotting; format: cell-based; conditions: preincubated 2 hours, 20 ng/mL IL-6 for 30 minutes
Protocol: as §1

STAT3, sequence (P40763 whole entry, species assumed): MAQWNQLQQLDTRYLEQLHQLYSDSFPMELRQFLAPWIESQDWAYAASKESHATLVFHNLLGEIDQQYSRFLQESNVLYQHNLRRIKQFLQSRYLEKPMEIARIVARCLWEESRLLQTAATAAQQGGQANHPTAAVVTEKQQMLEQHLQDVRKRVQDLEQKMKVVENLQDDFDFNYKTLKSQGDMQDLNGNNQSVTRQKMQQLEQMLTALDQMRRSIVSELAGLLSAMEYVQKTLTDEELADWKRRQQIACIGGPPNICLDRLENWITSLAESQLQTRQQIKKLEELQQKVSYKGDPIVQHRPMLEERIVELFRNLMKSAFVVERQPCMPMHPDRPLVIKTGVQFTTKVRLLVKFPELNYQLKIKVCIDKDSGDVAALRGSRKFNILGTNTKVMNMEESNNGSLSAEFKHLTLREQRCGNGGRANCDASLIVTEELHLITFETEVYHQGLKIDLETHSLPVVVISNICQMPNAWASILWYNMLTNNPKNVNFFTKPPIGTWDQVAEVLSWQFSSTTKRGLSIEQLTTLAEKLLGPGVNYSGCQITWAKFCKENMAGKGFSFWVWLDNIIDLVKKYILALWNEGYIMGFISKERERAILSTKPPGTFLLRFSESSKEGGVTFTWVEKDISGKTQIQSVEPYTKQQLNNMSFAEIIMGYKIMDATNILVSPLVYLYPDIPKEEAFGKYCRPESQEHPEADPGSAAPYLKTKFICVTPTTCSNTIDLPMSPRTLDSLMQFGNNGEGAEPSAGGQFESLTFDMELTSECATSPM

Row | binding to STAT3 (STAT3) | Substance | IL-6–induced STAT3 activation (pY705 phosphorylation) in CD8+ T cells (pY705-STAT3) | EGF-mediated ERK phosphorylation [1] | IL-6–induced STAT3 phosphorylation [2]
1 | – | PDIPKEEAFGK685(Ac)YCRPESQEHPC-linker-T*C*C*A*T*G*A*G*C*T*T*C*C*T*G*A*T*G*C*T [PS-acet.-STAT3 peptide] | downregulated | – | –
2 | strongly bound | PS-Gp130: PS-conjugated Gp130 peptide (amino acids 901–910) with phospho-Tyr905 (MPKS[pY]LPQTV; also: phosphorothioate oligonucleotide conjugate; UniProt P40189 901-910, looked up, fragment) | – | not | selectively inhibited
